# System: Xylella fastidiosa
# Conditions: in vivo
sequence,measurement,value
MAKWKLFKKIGIGFKKAAHVGKAALTK [B-passerin],PD resistance index,higher than that of tolerant control plants
same,resistance to X. fastidiosa conferred in transgenic grape plants,significantly higher level of resistance

# From patent US20100138957A1 (priority 2007, published 2010)
